Experimental data published in ChEMBL document CHEMBL3867456, “Vetiverianines A, B, and C: Sesquiterpenoids from Vetiveria zizanioides Roots” (J Nat Prod, 2016).

Assay: Cytotoxicity against human HL60 cells assessed as cell growth inhibition after 72 hrs by MTT assay
Assay type: functional, cell-based
Details: HL-60, 72 h

Compound | IC50 [µM]
C[C@@H]1CCC=C2CC[C@]3(C[C@]21C)O[C@]3(C)CO | 57.7
COc1cc([C@@H]2c3cc4c(cc3[C@@H](O[C@@H]3O[C@@H]5CO[C@@H](C)O[C@H]5[C@H](O)[C@H]3O)[C@H]3COC(=O)[C@H]23)OCO4)cc(OC)c1O [ETOPOSIDE] | 0.3
